Results from ChEMBL document CHEMBL1201862, “PubChem BioAssay data set” (2004).
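A five-concentration, 48-hour dose response in 96-well plates underlies each endpoint, interpolated linearly between surrounding concentrations. Abbreviation: GI50, concentration required for 50% inhibition of growth.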 Activity calls are given as the source filed them. No stated cut-off is given here; in the data, active = GI50 up to about 1.1 µM and inactive = higher.

Key:
Assay in all cases: inhibition of tumour cell growth, NCI panel, 48 h
[1] = tested on: DMS-114
[2] = tested on: HOP-18
[3] = tested on: KM-20L2
[4] = tested on: LXFL 529
[5] = tested on: M19-MEL
[6] = tested on: RXF 631
[7] = tested on: XF498
[8] = tested on: DLD-1
[9] = tested on: DMS-273

| SMILES | GI50 [1] | GI50 [2] | GI50 [3] | GI50 [4] | GI50 [5] | GI50 [6] | GI50 [7] | GI50 [8] | GI50 [9] |
| --- | --- | --- | --- | --- | --- | --- | --- | --- | --- |
| O=C1c2ccccc2C(=O)c2c(NCCCNCCO)ccc(NCCCNCCO)c21 | 6.01 µM (inactive) | 5.01 µM (inactive) | 5.51 µM (inactive) | 3.85 µM (inactive) | 4.93 µM (inactive) | 17.8 µM (inactive) | 4.67 µM (inactive) | – | – |
| c1ccc2c(c1)CCc1c(-c3ccncc3)n[nH]c1-2 | 17.2 µM (inactive) | – | 23.6 µM (inactive) | 23.7 µM (inactive) | 21.4 µM (inactive) | > 10 µM (inactive) | 0.583 µM (active) | 41.9 µM (inactive) | 22.9 µM (inactive) |
| O=C(O)C1=C(C(=O)Nc2ccccc2)C2C=CC1C2 (stereo unspecified) | > 100 µM (inactive) | > 100 µM (inactive) | > 100 µM (inactive) | > 100 µM (inactive) | > 100 µM (inactive) | – | > 100 µM (inactive) | > 100 µM (inactive) | > 100 µM (inactive) |
| COc1cc2cc3c4c(cc(OC)c(OC)c4c2cc1OC)CCN3C(=O)N(C)C | > 100 µM (inactive) | – | 58.2 µM (inactive) | 77.4 µM (inactive) | > 100 µM (inactive) | – | – | > 100 µM (inactive) | 89.1 µM (inactive) |
| OC1(c2ccccc2)OC(C#Cc2ccccc2)(c2ccccc2)c2ccccc21 (stereo unspecified) | 3.13 µM (inactive) | – | 3.33 µM (inactive) | 6.22 µM (inactive) | 3.23 µM (inactive) | 3.13 µM (inactive) | 7.26 µM (inactive) | 3.06 µM (inactive) | 3.4 µM (inactive) |
| Cc1cccc(C)c1NC(=O)C(C#N)C1=C(Cl)C(=O)c2ccccc2C1=O (stereo unspecified) | 15.3 µM (inactive) | 12.7 µM (inactive) | 24.1 µM (inactive) | 16.1 µM (inactive) | 4.55 µM (inactive) | 15.4 µM (inactive) | 15.5 µM (inactive) | 8.15 µM (inactive) | 30.5 µM (inactive) |
| COC(=O)C1=C(CO)C2C=CC1C2 (stereo unspecified) | – | > 100 µM (inactive) | > 100 µM (inactive) | > 100 µM (inactive) | > 100 µM (inactive) | > 100 µM (inactive) | > 100 µM (inactive) | > 100 µM (inactive) | > 100 µM (inactive) |
| CCOC(=O)c1c2cccccc2n2c(=O)cc(C)nc12 | – | – | > 100 µM (inactive) | > 100 µM (inactive) | – | – | – | – | > 100 µM (inactive) |
| c1ccc(C2N=NN(c3ccccc3)C2N2CCCCC2)cc1 (stereo unspecified) | > 100 µM (inactive) | – | > 100 µM (inactive) | > 100 µM (inactive) | > 100 µM (inactive) | – | 49.5 µM (inactive) | > 100 µM (inactive) | – |
| Cc1ccc(NC(=O)c2nc(S)nc(N)c2-c2ccccc2C)cc1C | > 100 µM (inactive) | > 100 µM (inactive) | > 100 µM (inactive) | > 100 µM (inactive) | > 100 µM (inactive) | – | > 100 µM (inactive) | > 100 µM (inactive) | > 100 µM (inactive) |
| Nc1nc(N)c(N=O)c(Nc2ccc(I)cc2)n1 | 20.7 µM (inactive) | – | 23.2 µM (inactive) | 9.93 µM (inactive) | 29.4 µM (inactive) | – | – | 10 µM (inactive) | 16.5 µM (inactive) |
| O=C(CC(=O)c1ccccc1)C(=O)Nc1ccc(Cl)cc1 | > 40.4 µM (inactive) | > 100 µM (inactive) | > 100 µM (inactive) | > 100 µM (inactive) | – | – | > 100 µM (inactive) | > 58.9 µM (inactive) | > 56.5 µM (inactive) |
| N#CC1([N+](=O)[O-])C=C1c1ccccc1 (stereo unspecified) | 48.6 µM (inactive) | – | > 100 µM (inactive) | 32.1 µM (inactive) | 56.1 µM (inactive) | > 100 µM (inactive) | – | 8.81 µM (inactive) | > 100 µM (inactive) |
| CC(C)(C)c1cc(CCC(=O)Nc2ccc(Cl)cc2Cl)nc(N)n1 | > 100 µM (inactive) | > 100 µM (inactive) | > 100 µM (inactive) | > 100 µM (inactive) | > 100 µM (inactive) | > 100 µM (inactive) | – | > 100 µM (inactive) | – |
| O=C1CNS(=O)(=O)N1 | > 100 µM (inactive) | – | – | > 100 µM (inactive) | > 100 µM (inactive) | – | > 100 µM (inactive) | > 100 µM (inactive) | > 100 µM (inactive) |
| CC1Nc2ccccc2NC1C=C(C#N)C#N (stereo unspecified) | 19.8 µM (inactive) | 20 µM (inactive) | 16.3 µM (inactive) | 13 µM (inactive) | 15 µM (inactive) | 11.9 µM (inactive) | 17.1 µM (inactive) | 14.4 µM (inactive) | 12.2 µM (inactive) |
| O=C(/C=C/c1ccccc1F)c1ccc(Cl)c(Cl)c1 | 24 µM (inactive) | 16.4 µM (inactive) | 36.3 µM (inactive) | 18.3 µM (inactive) | 24 µM (inactive) | > 53.7 µM (inactive) | 28.5 µM (inactive) | 23.9 µM (inactive) | 35.1 µM (inactive) |
| Cc1ccc(NC(=O)CC2SC(Nc3cccc(Cl)c3C)=NC2=O)cc1 (stereo unspecified) | 29.9 µM (inactive) | – | 70.8 µM (inactive) | 32.4 µM (inactive) | 71 µM (inactive) | > 100 µM (inactive) | 46.2 µM (inactive) | 48.8 µM (inactive) | > 100 µM (inactive) |
| CC1CCCC(C(=O)/C(=C/c2cccc(Cl)c2)C(=O)C(=O)O)C1 (stereo unspecified) | 21 µM (inactive) | 91 µM (inactive) | 25.9 µM (inactive) | 19.7 µM (inactive) | 18.7 µM (inactive) | – | – | 20 µM (inactive) | 34.8 µM (inactive) |
| Cc1nc(=O)n2c(C)n[nH]c2c1C(=O)Nc1cc(Cl)cc(Cl)c1 | – | – | – | 29.8 µM (inactive) | 27.3 µM (inactive) | – | – | 19.1 µM (inactive) | – |
| OCCC1(O)CCC(O)CC1 (stereo unspecified) | > 100 µM (inactive) | > 100 µM (inactive) | – | > 100 µM (inactive) | > 100 µM (inactive) | – | – | > 100 µM (inactive) | > 100 µM (inactive) |
| NC(CCSCC(F)(F)F)C(=O)O (stereo unspecified) | > 100 µM (inactive) | > 100 µM (inactive) | > 100 µM (inactive) | > 100 µM (inactive) | > 100 µM (inactive) | – | – | > 100 µM (inactive) | > 100 µM (inactive) |
| COc1cc(C2c3cc4c(cc3[C@@H](N(C)C)[C@H]3COC(=O)C23)OCO4)cc(OC)c1O (stereo partly specified) | – | – | 23.4 µM (inactive) | 35.2 µM (inactive) | – | 42.2 µM (inactive) | 45 µM (inactive) | 41.9 µM (inactive) | 32.5 µM (inactive) |
| C[C@]12CCCC(=O)C1(O)C[C@H](C(=O)O)CC2 (stereo partly specified) | > 100 µM (inactive) | > 100 µM (inactive) | > 100 µM (inactive) | > 100 µM (inactive) | > 100 µM (inactive) | > 100 µM (inactive) | > 100 µM (inactive) | > 100 µM (inactive) | > 100 µM (inactive) |
| COc1cccc2c1C(=O)c1c(O)c3c(c(O)c1C2=O)C[C@@](O)(C(=O)CO)CC3OC1CC(N(C)CCOCC(OC(C)=O)OC(C)=O)C(O)C(C)O1 (stereo partly specified) | > 0.01 µM (active) | > 0.01 µM (active) | > 0.01 µM (active) | > 0.01 µM (active) | > 0.01 µM (active) | – | > 0.01 µM (active) | > 0.01 µM (active) | – |
| CCN(CC)CCNc1ccc2nc(C)n3c4ccc(OC)cc4c(=O)c1c23 | 2.58 µM (inactive) | – | – | 1.41 µM (inactive) | 6.59 µM (inactive) | – | – | 0.463 µM (active) | 0.695 µM (active) |
| CC(O)(c1ccc(OCCC[N+](C)(C)C)cc1)C(C)(O)c1ccc(OCCC[N+](C)(C)C)cc1 (stereo unspecified) | > 100 µM (inactive) | > 100 µM (inactive) | > 100 µM (inactive) | > 100 µM (inactive) | – | – | – | > 100 µM (inactive) | > 100 µM (inactive) |
